Measured values reported in patent US9593305B2, “Differentiation of pluripotent stem cells” (Janssen Biotech, Inc., priority 2008, dated 2017).

Tested on: H1 human embryonic stem cells
Test: Step-wise differentiation, RT-PCR of differentiation markers (Example 17, Table 15)
Assay type: cell-based
Protocol: Stock cultures of human embryonic stem cells (H1 human embryonic stem cell line) were maintained in an undifferentiated, pluripotent state on reduced growth factor […]™ (BD Biosciences; Cat #356231)-coated dishes in MEF conditioned medium supplemented with 8 ng/ml bFGF (PeproTech Inc.; Cat #100-18B) with passage on average every four days. Passage was performed by exposing cell cultures to a solution of 1 mg/ml dispase (Invitrogen; Cat #17105-041) for 5 to 7 minutes at 37° C. followed by rinsing the monolayer with MEF conditioned culture medium and gentle scraping to recover cell clusters. Clusters were centrifuged at low speed to collect a cell pellet and remove residual dispase. Cell clusters were split at a 1:3 or 1:4 ratio for routine maintenance culture or a 1:1 ratio for immediate assay. All human ES cell lines were maintained at passage numbers less than 50 and routinely evaluated for normal karyotype and absence of mycoplasma.
Cell clusters were evenly resuspended in MEF conditioned medium supplemented with 8 ng/ml bFGF and plated onto reduced growth factor […]™-coated 24-well, black wall culture plates (Arctic White; Cat #AWLS-303012) in volumes of 0.5 ml/well. Daily feeding was conducted by aspirating spent culture medium from each well and replacing with an equal volume of fresh medium. Plates were maintained at 37° C., 5% CO2 throughout assay.
The assay was initiated by aspirating the culture medium from each well and adding back an aliquot (0.5 ml) of test medium. Test conditions for the first step of differentiation were conducted over a three-day period, feeding daily by aspirating and replacing the medium from each well with fresh test medium. On the first day of assay, 100 ng/ml activin A (PeproTech; Cat #120-14) or 100 ng/ml GDF-8 (R&D Systems, Cat #788-G8) was added to respective assay wells where each growth factor was diluted into RPMI-1640 medium (Invitrogen; Cat #: 22400) with 2% Albumin Bovine Fraction V, Fatty Acid Free (FAF BSA) (MP Biomedicals, Inc; Cat #152401). In some samples, 20 ng/ml Wnt3a (R&D Systems; Cat #1324-WN/CF) was also included. On the second day of assay, 100 ng/mlactivin A or 100 ng/ml GDF-8 was diluted into RPMI-1640 medium supplemented with 2% FAF BSA, omitting Wnt3a from all samples. In some test samples using GDF-8, Wnt3a was replaced with a given concentration of small molecule compound, added only on the first day of definitive endoderm differentiation. […] At the conclusion of the first step of differentiation, cells from some wells were harvested for flow cytometry analysis to evaluate levels of CXCR4, a marker of definitive endoderm formation. Additional wells were harvested for RT-PCR analysis to measure other markers of differentiation.
At the conclusion of the first step of definitive endoderm differentiation, replicate sets of parallel wells from each treatment group were subjected to further step-wise differentiation. It is important to note that after the first differentiation step, all wells undergoing subsequent culture and differentiation received the same treatment. The protocol for this continuing differentiation is described below.
Step 2 of the differentiation protocol was carried out over two days. Cells were fed daily by aspirating the medium from each well and replacing with a fresh aliquot (0.5 ml) of DMEM:F12 medium (Invitrogen; Cat #11330-032) containing 2% FAF BSA, 50 ng/ml FGF7 (PeproTech; Cat #100-19), and 250 nM cyclopamine-KAAD (Calbiochem; Cat #239804).
Step 3 of the differentiation protocol was carried out over four days. […]

[1] = Step 5, cells harvested at end of step, treatment given during step one

For “Activin A: recombinant human activin A (PeproTech), TGF-beta family member”, the “RT-PCR CT Values AFP” value (Step 1) was 32.8, the “RT-PCR CT Values CD9” value (Step 1) was 25.2 and the “RT-PCR CT Values CD99” value (Step 1) was 24.0. For the same substance, the “RT-PCR CT Values CDH” value (Step 1) was 21.8, the “RT-PCR CT Values CDH1” value (Step 1) was 26.1 and the “RT-PCR CT Values CDX2” value (Step 1) was 36.0. For the same substance, the “RT-PCR CT Values CER1” value (Step 1) was 18.3, the “RT-PCR CT Values CXCR4” value (Step 1) was 20.4 and the “RT-PCR CT Values FGF4” value (Step 1) was 34.0. The “RT-PCR CT Values FGF17” value (Step 1) was 20.7, the “RT-PCR CT Values FOXA2” value (Step 1) was 25.1 and the “RT-PCR CT Values GAPDH” value (Step 1) was 19.4. The “RT-PCR CT Values GATA4” value (Step 1) was 25.0, the “RT-PCR CT Values GATA6” value (Step 1) was 22.9 and the “RT-PCR CT Values GSC” value (Step 1) was 22.4. The “RT-PCR CT Values HLXB9” value (Step 1) was 24.8, the “RT-PCR CT Values KIT” value (Step 1) was 22.7 and the “RT-PCR CT Values MIXL1” value (Step 1) was 28.9. The “RT-PCR CT Values NANOG” value (Step 1) was 24.1, the “RT-PCR CT Values OTX2” value (Step 1) was 22.5 and the “RT-PCR CT Values POU5F1” value (Step 1) was 32.2. The “RT-PCR CT Values SOX7” value (Step 1) was 32.3, the “RT-PCR CT Values SOX17” value (Step 1) was 21.6 and the “RT-PCR CT Values T” value (Step 1) was 36.1. The “RT-PCR CT Values ALB” value (Step 3) was 26.9, the “RT-PCR CT Values AMY2A” value (Step 3) was 30.6 and the “RT-PCR CT Values ARX” value (Step 3) was 32.0. The “RT-PCR CT Values CDX2” value (Step 3) was 22.9, the “RT-PCR CT Values GAPDH” value (Step 3) was 18.5 and the “RT-PCR CT Values GCG” value (Step 3) was 34.1. The “RT-PCR CT Values HNF4A” value (Step 3) was 22.4, the “RT-PCR CT Values INS” value (Step 3) was 34.8 and the “RT-PCR CT Values ISL1” value (Step 3) was 29.3. For the same substance, the “RT-PCR CT Values MAFA” value (Step 3) was 36.4, the “RT-PCR CT Values MAFB” value (Step 3) was 27.4 and the “RT-PCR CT Values NEUROD1” value (Step 3) was 30.1. For the same substance, the “RT-PCR CT Values NEUROG3” value (Step 3) was 28.0, the “RT-PCR CT Values NKX2-2” value (Step 3) was 29.3 and the “RT-PCR CT Values NKX2-5” value (Step 3) was 34.6. For the same substance, the “RT-PCR CT Values NKX6-1” value (Step 3) was 32.2, the “RT-PCR CT Values PAX4” value (Step 3) was 31.4 and the “RT-PCR CT Values PAX6” value (Step 3) was 40.0. For the same substance, the “RT-PCR CT Values PDX1” value (Step 3) was 23.3, the “RT-PCR CT Values PECAM” value (Step 3) was 31.0 and the “RT-PCR CT Values POU3F4” value (Step 3) was 30.5. The “RT-PCR CT Values PTF1A” value (Step 3) was 34.6, the “RT-PCR CT Values SST” value (Step 3) was 33.2 and the “RT-PCR CT Values ZIC1” value (Step 3) was 34.8. For the same substance, the “RT-PCR CT Values ALB” value (Step 4) was 22.4, the “RT-PCR CT Values AMY2A” value (Step 4) was 28.6 and the “RT-PCR CT Values ARX” value (Step 4) was 23.9. The “RT-PCR CT Values CDX2” value (Step 4) was 23.7, the “RT-PCR CT Values GAPDH” value (Step 4) was 19.0 and the “RT-PCR CT Values GCG” value (Step 4) was 22.8. The “RT-PCR CT Values HNF4A” value (Step 4) was 22.1, the “RT-PCR CT Values INS” value (Step 4) was 23.6 and the “RT-PCR CT Values ISL1” value (Step 4) was 24.1. For the same substance, the “RT-PCR CT Values MAFA” value (Step 4) was 30.6, the “RT-PCR CT Values MAFB” value (Step 4) was 23.5 and the “RT-PCR CT Values NEUROD1” value (Step 4) was 23.7. The “RT-PCR CT Values NEUROG3” value (Step 4) was 23.3, the “RT-PCR CT Values NKX2-2” value (Step 4) was 24.0 and the “RT-PCR CT Values NKX2-5” value (Step 4) was 31.9. The “RT-PCR CT Values NKX6-1” value (Step 4) was 27.4, the “RT-PCR CT Values PAX4” value (Step 4) was 25.7 and the “RT-PCR CT Values PAX6” value (Step 4) was 27.1. For the same substance, the “RT-PCR CT Values PDX1” value (Step 4) was 23.7, the “RT-PCR CT Values PECAM” value (Step 4) was 29.8 and the “RT-PCR CT Values POU3F4” value (Step 4) was 26.5. For the same substance, the “RT-PCR CT Values PTF1A” value (Step 4) was 29.6, the “RT-PCR CT Values SST” value (Step 4) was 24.3 and the “RT-PCR CT Values ZIC1” value (Step 4) was 32.5. For the same substance, the “RT-PCR CT Values ALB” value (Step 5) was 20.2, the “RT-PCR CT Values AMY2A” value (Step 5) was 27.6 and the “RT-PCR CT Values ARX” value (Step 5) was 22.0. For the same substance, the “RT-PCR CT Values CDX2” value (Step 5) was 23.4, the “RT-PCR CT Values GAPDH” value (Step 5) was 18.3 and the “RT-PCR CT Values GCG” value (Step 5) was 14.1. For the same substance, the “RT-PCR CT Values HNF4A” value (Step 5) was 21.3, the “RT-PCR CT Values INS” value (Step 5) was 14.9 and the “RT-PCR CT Values ISL1” value (Step 5) was 22.4. For the same substance, the “RT-PCR CT Values MAFA” value (Step 5) was 31.8, the “RT-PCR CT Values MAFB” value (Step 5) was 22.2 and the “RT-PCR CT Values NEUROD1” value (Step 5) was 22.8. The “RT-PCR CT Values NEUROG3” value (Step 5) was 28.1, the “RT-PCR CT Values NKX2-2” value [1] was 23.7 CT and the “RT-PCR CT Values NKX2-5” value [1] was 34.1 CT. The “RT-PCR CT Values NKX6-1” value [1] was 25.5 CT, the “RT-PCR CT Values PAX4” value [1] was 27.3 CT and the “RT-PCR CT Values PAX6” value [1] was 24.0 CT. The “RT-PCR CT Values PDX1” value [1] was 23.2 CT, the “RT-PCR CT Values PECAM” value [1] was 30.1 CT and the “RT-PCR CT Values POU3F4” value [1] was 28.8 CT. The “RT-PCR CT Values PTF1A” value [1] was 27.3 CT, the “RT-PCR CT Values SST” value [1] was 19.6 CT and the “RT-PCR CT Values ZIC1” value [1] was 34.4 CT.
